Source: ChEMBL document CHEMBL3351661, “Structure-activity relationship studies of antiplasmodial aminomethylthiazoles” (Bioorg Med Chem Lett, 2014)
Values after ≈ are worked out from the molar mass of the structure shown.

Assays:
[1] = Aqueous kinetic solubility at pH 7.4 by turbidimetric assay; format: physicochemical; details: read-out: Kinetic_solubility
Plasmodium falciparum = test: microbe, parasite or virus in culture; details: NF54
Description: Antiplasmodial activity against chloroquine-sensitive Plasmodium falciparum NF54 asexual erythrocyte stages by parasite lactate dehydrogenase assay

Structure (SMILES)	solubility kinetic [1]	IC50 (Plasmodium falciparum)
CC(C)(C)c1cc(C(=O)Nc2cccc(CN)n2)n(Cc2ccccc2)n1	40 µg/mL (≈ 110 µM)	0.125 µM
CC(C)(C)c1cc(C(=O)Nc2ncc(CN)s2)n(Cc2ccccc2)n1	80 µg/mL (≈ 217 µM)	9.09 µM
CC(C)(C)c1cc(C(=O)Nc2ccc(CN)c3ccccc23)n(Cc2ccccc2)n1		7.59 µM
NCc1csc(NC(=O)c2ccnn2Cc2ccccc2)n1	> 200 µg/mL	43.7 µM
Cc1cc(C(=O)Nc2nc(CN)cs2)n(Cc2ccccc2)n1	160 µg/mL (≈ 489 µM)	19.8 µM
Cc1ccc(-c2cc(C(=O)Nc3nc(CN)cs3)n(Cc3ccccc3)n2)cc1	40 µg/mL (≈ 99.1 µM)	2.03 µM
NCc1csc(NC(=O)c2cccs2)n1	80 µg/mL (≈ 334 µM)	91.7 µM
N#Cc1ccc(C(=O)Nc2nc(CN)cs2)cc1	20 µg/mL (≈ 77.4 µM)	146 µM
NCc1csc(NC(=O)c2ccc(C(F)(F)F)cc2)n1	40 µg/mL (≈ 133 µM)	40.2 µM
NCc1csc(NC(=O)c2ccc(OC(F)(F)F)cc2)n1	40 µg/mL (≈ 126 µM)	43.9 µM
NCc1csc(NC(=O)c2cscn2)n1	80 µg/mL (≈ 333 µM)	149 µM
NCc1csc(NC(=O)c2ccc(F)cc2)n1	80 µg/mL (≈ 318 µM)	123 µM
NCc1csc(NC(=O)c2cnccn2)n1	> 200 µg/mL	173 µM
C[C@H]1[C@H](OC(=O)CCC(=O)O)O[C@@H]2O[C@@]3(C)CC[C@H]4[C@H](C)CC[C@@H]1[C@@]24OO3 [ARTESUNATE]		0.0052 µM

More lines, now with the values ahead:

solubility kinetic [1]	IC50 (Plasmodium falciparum)	Structure (SMILES)
> 200 µg/mL	0.0203 µM	CC(C)(C)c1cc(C(=O)Nc2nc(CN)cs2)n(Cc2ccccc2)n1
> 200 µg/mL	12.1 µM	CC(C)(C)c1cc(C(=O)Nc2nc(CN)cs2)n(Cc2ccc(Cl)cc2)n1
80 µg/mL (≈ 198 µM)	1.84 µM	CC(C)(C)c1cc(C(=O)Nc2nc(CN)cs2)n(Cc2ccccc2Cl)n1
> 200 µg/mL	12.8 µM	CC(C)(C)c1cc(C(=O)Nc2nc(CN)cs2)n(Cc2ccc(Br)cc2)n1
	4.7 µM	CC(C)(C)c1cc(C(=O)Nc2nc(CN)cs2)n(Cc2ccc(F)cc2F)n1
10 µg/mL (≈ 23.5 µM)	2.58 µM	CC(C)(C)c1ccc(Cn2nc(C(C)(C)C)cc2C(=O)Nc2nc(CN)cs2)cc1
160 µg/mL (≈ 450 µM)	67.5 µM	CC(C)(C)c1cc(C(=O)Nc2nc(CN)cs2)n(-c2ccccc2)n1
